Values after ≈ are worked out from the molar mass of the structure shown. Active and inactive are the calls of the source. The rule behind the calls is not given here.

Broadly, the IC50 is the concentration at which inhibition is half-maximal. A word on the MIC90: it is an inhibitory concentration at the 90% level, which refers to growth in some studies and to a panel of isolates in others.

Assay [1] has as its system Mycobacterium tuberculosis. Briefly: Antitubercular activity against Mycobacterium tuberculosis H37Rv infected in human THP1 cells assessed as reduction in CFU incubated for 48 hrs. The assay is classed as functional, organism-based.
Assay [2] relates to THP-1. Nature of the assay: Cytotoxicity against human THP1 cells assessed as reduction in cell viability incubated for 48 hrs by MTT assay. The assay is classed as cell-based. The following applies: THP-1, 48 h. A general note: Tetrazolium assays rely on reduction of a dye to a coloured formazan, in cell work by metabolically active cells.
Assay [3] deals with Mycobacterium tuberculosis. Briefly: Antitubercular activity against Mycobacterium tuberculosis H37Rv assessed as reduction in bacterial cell viability incubated for 5 days by microplate alamar blue assay. The assay is classed as functional. The following applies: 120 h. For orientation: Alamar Blue is a resazurin reagent that responds to reducing activity.

`NNC(=O)c1ccncc1` [ISONIAZID]: the result in assay [1] was Active. In assay [2], the IC50 is over 25 mg/L. Also, the MIC90 in assay [3] came to 0.25 mg/L (≈ 1.82 µM).

The values are drawn from ChEMBL document CHEMBL4311978, “Transferrin conjugates of antitubercular drug isoniazid: Synthesis and in vitro efficacy” (Eur J Med Chem, 2019).
